Measurements published in patent publication US11760754B2, “Heterocyclic mitochondrial activity inhibitors and uses thereof” (UNIVERSITÉ DE MONTRÉAL, priority 2017, dated 2023).
pEC50: −log10 of the molar value.

Experiments:
MLL-AF9 cells = assay: MLL-AF9 leukemia cell growth inhibition, dose-response viability assay (CellTiterGlo); type: cell-based, murine; settings: Mus musculus, MLL-AF9, 120 h, read-out: MLL-AF9 EC50
Method: (§1) The potency of the compounds of Example 6 at inhibiting OCI-AML3 cell growth was tested using a procedure similar to that described for Mutritinib in Example 1. […] Murine MLL-AF9 leukemia cells (female cells) were generated by infection with VSV-G-pseudotyped MSCV MLL-AF9 IRES Puro (subcloned from a construct by Frédéric Barabé, Laval U, Quebec, QC, Canada).
(§2) Compounds were added to seeded cells in serial dilutions from 10 μM to 0.5 nM, in duplicates or quadruplicates.

OCI-AML3 cells = assay: OCI-AML3 cell growth inhibition, dose-response viability assay (CellTiterGlo); type: cell-based; settings: Homo sapiens, OCI-AML-3, 144 h, read-out: AML-3 EC50
Method: Cell dose-response viability assays. […] In the initial screen, compounds were added to seeded cells in serial dilutions (10 dilutions, 1:3, starting from […] 20 μM), in duplicates.
as §1, §2

Compound | pEC50 (MLL-AF9 cells) | pEC50 (OCI-AML3 cells)
FC(F)(F)c1ccc(/C=C/c2cccc(COc3ccc(CCCCn4ccnn4)cc3)c2)cc1 [Compound 56, (E)-1-(4-(4-((3-(4-(trifluoromethyl)styryl)benzyl)oxy)phenyl)butyl)-1H-1,2,3-triazole] | 5.00 to 6.00 | 5.00 to 6.00
FC(F)(F)c1ccc(/C=C/c2ccc(COc3ccc(CCCCn4ccnn4)cc3)cc2)cc1 [Compound 57, (E)-1-(4-(4-((4-(4-(trifluoromethyl)styryl)benzyl)oxy)phenyl)butyl)-1H-1,2,3-triazole] | 6.00 to 6.30 | 5.00 to 6.00
COC(=O)c1ccc(/C=C/c2nc(COc3ccc(CCCCn4ccnn4)cc3)co2)cc1 [Compound 58, (E)-methyl 4-(2-(4-((4-(4-(1H-1,2,3-triazol-1-yl)butyl)phenoxy)methyl)oxazol-2-yl)vinyl)benzoate] | 5.00 to 6.00 | 6.00 to 6.30
C#CCNC(=O)c1ccc(/C=C/c2nc(COc3ccc(CCCCn4ccnn4)cc3)co2)cc1 [Compound 59, (E)-4-(2-(4-((4-(4-(1H-1,2,3-triazol-1-yl)butyl)phenoxy)methyl)oxazol-2-yl)vinyl)-N-(prop-2-yn-1-yl)benzamide] | 6.30 to 7.00 | 6.00 to 6.30
OCc1ccc(/C=C/c2nc(COc3ccc(CCCCn4ccnn4)cc3)co2)cc1 [Compound 60, (E)-(4-(2-(4-((4-(4-(1H-1,2,3-triazol-1-yl)butyl)phenoxy)methyl)oxazol-2-yl)vinyl)phenyl)methanol] | 5.00 to 6.00 | 5.00 to 6.00
Oc1ccc(/C=C/c2nc(COc3ccc(CCCCn4ccnn4)cc3)co2)cc1 [Compound 62, (E)-4-(2-(4-((4-(4-(1H-1,2,3-triazol-1-yl)butyl)phenoxy)methyl)oxazol-2-yl)vinyl)phenol] | 6.30 to 7.00 | 6.30 to 7.00
NC(=O)c1ccc(/C=C/c2nc(COc3ccc(CCCCn4ccnn4)cc3)co2)cc1 [Compound 63, (E)-4-(2-(4-((4-(4-(1H-1,2,3-triazol-1-yl)butyl)phenoxy)methyl)oxazol-2-yl)vinyl)benzamide] | 5.00 to 6.00 | 6.00 to 6.30
C#Cc1ccc(/C=C/c2nc(COc3ccc(CCCCn4ccnn4)cc3)co2)cc1 [Compound 64, (E)-4-((4-(4-(1H-1,2,3-triazol-1-yl)butyl)phenoxy)methyl)-2-(4-ethynylstyryl)oxazole] | 6.00 to 6.30 | 5.00 to 6.00
CN(C)c1cccc2c(S(=O)(=O)NCCNC(=O)c3ccc(/C=C/c4nc(COc5ccc(CCCCn6ccnn6)cc5)co4)cc3)cccc12 [Compound 72, (E)-4-(2-(4-((4-(4-(1H-1,2,3-triazol-1-yl)butyl)phenoxy)methyl)oxazol-2-yl)vinyl)-N-(2-(5-(dimethylamino)naphthalene-1-sulfonamido)ethyl)benzamide] | 6.00 to 6.30 | 5.00 to 6.00
Fc1ccc2[nH]c(-c3nc(COc4ccc(CCCCn5ccnn5)cc4)co3)cc2c1 [Compound 73] | > 7.30 | 6.30 to 7.00
FC(F)(F)c1ccc(-c2ccc(COc3ccc(CCCCn4ccnn4)cc3)cn2)cc1 [Compound 75] | 5.00 to 6.00 | 5.00 to 6.00
FC(F)(F)c1ccc(C2CC2c2nc(COc3ccc(CCCCn4ccnn4)cc3)co2)cc1 (centres unmarked) [Compound 76, 4-((4-(4-(1H-1,2,3-triazol-1-yl)butyl)phenoxy)methyl)-2-(2-(4-(trifluoromethyl)phenyl)cyclopropyl)oxazole] | 5.00 to 6.00 | 5.00 to 6.00
COC(=O)c1coc(COc2ccc(CCCCn3ccnn3)cc2)n1 [Compound 77, Methyl 2-((4-(4-(1H-1,2,3-triazol-1-yl)butyl)phenoxy)methyl)oxazole-4-carboxylate] | < 5.00 | 5.00 to 6.00
O=C(Nc1ccc(C(F)(F)F)cc1[N+](=O)[O-])c1coc(COc2ccc(CCCCn3ccnn3)cc2)n1 [Compound 78, 2-((4-(4-(1H-1,2,3-triazol-1-yl)butyl)phenoxy)methyl)-N-(2-nitro-4-(trifluoromethyl)phenyl)oxazole-4-carboxamide] | < 5.00 | 5.00 to 6.00

More lines, now with the values ahead:

pEC50 (MLL-AF9 cells) | pEC50 (OCI-AML3 cells) | Compound
> 7.30 | 7.00 to 7.30 | Fc1cc(C(F)(F)F)ccc1/C=C/c1nc(COc2ccc(CCCCn3ccnn3)cc2)co1 [Compound 48, (E)-4-((4-(4-(1H-1,2,3-triazol-1-yl)butyl)phenoxy)methyl)-2-(2-fluoro-4-(trifluoromethyl)styryl)oxazole]
5.00 to 6.00 | 5.00 to 6.00 | FC(F)(F)c1cccc(/C=C/c2nc(COc3ccc(CCCCn4ccnn4)cc3)co2)c1 [Compound 49, (E)-4-((4-(4-(1H-1,2,3-triazol-1-yl)butyl)phenoxy)methyl)-2-(3-(trifluoromethyl)styryl)oxazole]
6.30 to 7.00 | 5.00 to 6.00 | FC(F)(F)c1ccc(/C=C/c2nc(COc3ccc(CCCn4ccnn4)cc3)co2)cc1 [Compound 50, (E)-4-((4-(3-(1H-1,2,3-triazol-1-yl)propyl)phenoxy)methyl)-2-(4-(trifluoromethyl)styryl)oxazole]
6.00 to 6.30 | 5.00 to 6.00 | OCCc1nccn1CCCCc1ccc(OCc2coc(/C=C/c3ccc(C(F)(F)F)cc3)n2)cc1 [Compound 51, (E)-2-(1-(4-(4-((2-(4-(trifluoromethyl)styryl)oxazol-4-yl)methoxy)phenyl)butyl)-1H-imidazol-2-yl)ethanol]
5.00 to 6.00 | 5.00 to 6.00 | NCCc1nccn1CCCCc1ccc(OCc2coc(/C=C/c3ccc(C(F)(F)F)cc3)n2)cc1 [Compound 52, (E)-2-(1-(4-(4-((2-(4-(trifluoromethyl)styryl)oxazol-4-yl)methoxy)phenyl)butyl)-1H-imidazol-2-yl)ethanamine]
7.00 to 7.30 | 6.30 to 7.00 | CN(C)C(=O)OCCc1nccn1CCCCc1ccc(OCc2coc(/C=C/c3ccc(C(F)(F)F)cc3)n2)cc1 [Compound 53, (E)-2-(1-(4-(4-((2-(4-(trifluoromethyl)styryl)oxazol-4-yl)methoxy)phenyl)butyl)-1H-imidazol-2-yl)ethyl dimethylcarbamate]
6.30 to 7.00 | 6.30 to 7.00 | CS(=O)(=O)NCCc1nccn1CCCCc1ccc(OCc2coc(/C=C/c3ccc(C(F)(F)F)cc3)n2)cc1 [Compound 54, (E)-N-(2-(1-(4-(4-((2-(4-(trifluoromethyl)styryl)oxazol-4-yl)methoxy)phenyl)butyl)-1H-imidazol-2-yl)ethyl)methanesulfonamide]
6.30 to 7.00 | 6.00 to 6.30 | O=S(=O)(NCCc1nccn1CCCCc1ccc(OCc2coc(/C=C/c3ccc(C(F)(F)F)cc3)n2)cc1)C(F)(F)F [Compound 55, (E)-1,1,1-trifluoro-N-(2-(1-(4-(4-((2-(4-(trifluoromethyl)styryl)oxazol-4-yl)methoxy)phenyl)butyl)-1H-imidazol-2-yl)ethyl)methanesulfonamide]
6.30 to 7.00 | 6.30 to 7.00 | COc1ccc(/C=C/c2nc(COc3ccc(CCCCn4ccnn4)cc3)co2)c(F)c1 [Compound 61, (E)-4-((4-(4-(1H-1,2,3-triazol-1-yl)butyl)phenoxy)methyl)-2-(2-fluoro-4-methoxystyryl)oxazole]
> 7.30 | 7.00 to 7.30 | O=[N+]([O-])c1ccc(/C=C/c2nc(COc3ccc(CCCCn4ccnn4)cc3)co2)c(F)c1 [Compound 65, (E)-4-((4-(4-(1H-1,2,3-triazol-1-yl)butyl)phenoxy)methyl)-2-(2-fluoro-4-nitrostyryl)oxazole]
5.00 to 6.00 | 5.00 to 6.00 | Nc1ccc(/C=C/c2nc(COc3ccc(CCCCn4ccnn4)cc3)co2)c(F)c1 [Compound 66, (E)-4-(2-(4-((4-(4-(1H-1,2,3-triazol-1-yl)butyl)phenoxy)methyl)oxazol-2-yl)vinyl)-3-fluoroaniline]
6.30 to 7.00 | 6.30 to 7.00 | [N-]=[N+]=Nc1ccc(/C=C/c2nc(COc3ccc(CCCCn4ccnn4)cc3)co2)c(F)c1 [Compound 67, (E)-4-((4-(4-(1H-1,2,3-triazol-1-yl)butyl)phenoxy)methyl)-2-(4-azido-2-fluorostyryl)oxazole]
6.30 to 7.00 | 6.00 to 6.30 | CN(C)C(=O)OCCc1cn(CCCCc2ccc(OCc3coc(/C=C/c4ccc(C(F)(F)F)cc4)n3)cc2)nn1 [Compound 68, (E)-2-(1-(4-(4-((2-(4-(trifluoromethyl)styryl)oxazol-4-yl)methoxy)phenyl)butyl)-1H-1,2,3-triazol-4-yl)ethyl dimethylcarbamate]
6.30 to 7.00 | 6.00 to 6.30 | COCCNC(=O)OCCc1cn(CCCCc2ccc(OCc3coc(/C=C/c4ccc(C(F)(F)F)cc4)n3)cc2)nn1 [Compound 69, (E)-2-(1-(4-(4-((2-(4-(trifluoromethyl)styryl)oxazol-4-yl)methoxy)phenyl)butyl)-1H-1,2,3-triazol-4-yl)ethyl (2-methoxyethyl)carbamate]
6.30 to 7.00 | 6.00 to 6.30 | CC(C)NC(=O)OCCc1cn(CCCCc2ccc(OCc3coc(/C=C/c4ccc(C(F)(F)F)cc4)n3)cc2)nn1 [Compound 70, (E)-2-(1-(4-(4-((2-(4-(trifluoromethyl)styryl)oxazol-4-yl)methoxy)phenyl)butyl)-1H-1,2,3-triazol-4-yl)ethyl isopropylcarbamate]
> 7.30 | 6.30 to 7.00 | O=S1(=O)CCN(Cc2cn(CCCCc3ccc(OCc4coc(/C=C/c5ccc(C(F)(F)F)cc5F)n4)cc3)nn2)CC1 [Compound 71, (E)-4-((1-(4-(4-((2-(2-fluoro-4-(trifluoromethyl)styryl)oxazol-4-yl)methoxy)phenyl)butyl)-1H-1,2,3-triazol-4-yl)methyl)thiomorpholine 1,1-dioxide]
6.30 to 7.00 | 5.00 to 6.00 | C/C(=C\c1nc(COc2ccc(CCCCn3ccnn3)cc2)co1)c1ccc(C(F)(F)F)cc1 [Compound 74, (E)-4-((4-(4-(1H-1,2,3-triazol-1-yl)butyl)phenoxy)methyl)-2-(2-(4-(trifluoromethyl)phenyl)prop-1-en-1-yl)oxazole]
